Test results as given in the supplement of paper PMC10307832.

How the values were obtained:
Assay in all cases: relative viability (nuclei count vs DMSO), 5 days (fraction); higher = more cells survive
Sulindac + Crizotinib = compound: CC1=C(CC(=O)O)c2cc(F)ccc2/C1=C\c1ccc([S+](C)[O-])cc1 [Sulindac] + C[C@@H](Oc1cc(-c2cnn(C3CCNCC3)c2)cnc1N)c1c(Cl)ccc(F)c1Cl [Crizotinib] (partner 1 µM)
Outline: (§1)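 Nuclei were stained with Hoechst during a one-step fixation (final 0.05% Triton X-100, 1% formaldehyde, 1 ug/ml Hoechst) carried out 5 days after dosing, then counted on 4× images. The cells, lung cancer lines in 1536-well plates, had been dosed by pin tool the day after seeding with one drug alone or a fixed anchor-drug dose plus five library-drug doses (not always all listed) in √10 steps. Relative viability is the nuclei count in treated wells divided by that in vehicle wells, and each value is the median of duplicate plates.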

Sulindac + Vorinostat = compound: CC1=C(CC(=O)O)c2cc(F)ccc2/C1=C\c1ccc([S+](C)[O-])cc1 [Sulindac] + O=C(CCCCCCC(=O)Nc1ccccc1)NO [Vorinostat] (partner 1 µM)
Outline: as §1

[1] = compound: O=c1[nH]cc(F)c(=O)[nH]1 [5-Fluorouracil] + CC1(C)CCC(c2ccc(Cl)cc2)=C(CN2CCN(c3ccc(C(=O)NS(=O)(=O)c4ccc(N[C@H](CCN5CCOCC5)CSc5ccccc5)c(S(=O)(=O)C(F)(F)F)c4)cc3)CC2)C1 [Navitoclax] (partner 0.5 µM)
Outline: as §1

[2] = compound: O=c1[nH]cc(F)c(=O)[nH]1 [5-Fluorouracil] + O=C(c1cc(Cc2n[nH]c(=O)c3ccccc23)ccc1F)N1CCN(C(=O)C2CC2)CC1 [Olaparib] (partner 8 µM)
Outline: as §1

Cell Line	relative viability (Sulindac + Crizotinib; first compound 0.08 µM)	relative viability (Sulindac + Crizotinib; first compound 0.253 µM)	relative viability (Sulindac + Crizotinib; first compound 0.8 µM)	relative viability (Sulindac + Crizotinib; first compound 2.53 µM)	relative viability (Sulindac + Crizotinib; first compound 8 µM)	relative viability (Sulindac + Vorinostat; first compound 0.08 µM)	relative viability (Sulindac + Vorinostat; first compound 0.253 µM)	relative viability (Sulindac + Vorinostat; first compound 0.8 µM)	relative viability (Sulindac + Vorinostat; first compound 2.53 µM)	relative viability (Sulindac + Vorinostat; first compound 8 µM)	relative viability ([1]; first compound 0.02 µM)	relative viability ([1]; first compound 0.2 µM)	relative viability ([1]; first compound 0.6325 µM)	relative viability ([1]; first compound 2 µM)	relative viability ([2]; first compound 0.02 µM)	relative viability ([2]; first compound 0.2 µM)	relative viability ([2]; first compound 0.6325 µM)	relative viability ([2]; first compound 2 µM)
NCI-H2087	1.08	0.882	0.739	1.03	0.85	1.02	0.622	0.561	0.662	0.722	0.928	0.917	0.573	0.557	0.577	0.607	0.45	0.319
NCI-H596	0.896	1.05	0.913	0.991	1.04	0.589	0.606		0.578	0.612	0.804	0.753	0.566	0.347	0.66	0.694	0.57	0.491
Calu-6	0.951	0.883	0.637	0.853	0.969						0.859	0.786	0.679	0.362	0.535	0.557	0.519	0.347
LCLC-103H	1.09	1.11	0.952	1.11	1.09	0.872	0.773	0.729	0.72	0.799					0.801	0.741	0.559	0.46
HCC-15	0.952	0.934	0.647	0.834	0.883	0.94	0.885	0.738	0.835	0.975	0.761	0.77	0.469	0.298	0.741	0.707	0.521	0.33
H3255	0.829	1.04	0.891	0.917	1.05	0.765	0.723	0.661	0.695	0.819	0.566	0.795	0.454	0.419	0.573	0.578	0.578	0.556
NCI-H1915	1.25	1.02	0.676	0.903	0.947	0.555	0.577	0.508	0.539	0.574	0.714	0.8	0.779	0.668	0.197	0.269	0.22	0.211
NCI-H1563	0.84	0.92	0.806	0.785	0.888													
NCI-H650	0.788	0.73	0.793	0.637	0.914	0.506	0.429	0.334	0.379	0.579					0.282	0.323	0.26	0.293
NCI-H2126	1.13	1.01	1.03	1.04	1.11	0.902	0.79	0.721	0.715	0.839	0.827	0.367	0.303	0.298	0.808	0.374	0.329	0.254
NCI-H838	1.12	0.781	0.674	0.903	0.884	0.736	0.777	0.762	0.726	0.713	1.14	1.06	0.572	0.28	0.801	0.691	0.45	0.296
NCI-H2342						0.791	0.774	0.619	0.669	0.791					0.419	0.529	0.442	0.39
EMC-BAC-2	0.788	0.778	0.585	0.779	0.91	0.559	0.405	0.367	0.426	0.528	1.19	1.2	1.25	1.19	0.479	0.53	0.45	0.469
NCI-H661	0.973	1.03	1.03	1.17	0.973	0.936	0.812	0.693	0.814	0.852					0.776	0.8	0.808	0.693
NCI-H1299	1.06	0.975	0.866	0.971	1.01						1.07	1.1	1.06	0.895	1.06	1.02	0.917	0.655
NCI-H358	0.475	0.52	0.596	0.497	0.746	0.842	0.722	0.601	0.669	0.897					0.637	0.686	0.612	0.39
SW 900						0.553	0.47			0.578					0.751	0.794	0.811	0.522
NCI-H1792	1	1		0.944	1.16						0.64	0.591	0.131	0.118	0.467	0.54	0.169	0.175
NCI-H1703	0.561	0.649	0.824	0.678	0.805						1.32	1.08	0.817	0.61	0.337	0.614	0.365	0.255
EBC-1	0.188	0.196		0.178	0.201						0.342	0.405	0.44	0.339	0.769	0.772	0.759	0.44
NCI-H1395						0.662	0.832	0.641	0.682	0.959	0.997	1.21	1.07	1.12	0.481	0.445	0.557	0.479
ABC-1	1.44	1.03	0.809	1.19	1.6	1.01	1.27	1.14	0.74	1.09					0.782	0.716	1	0.51
NCI-H1793						0.726	0.716		0.637	0.68	0.385	0.53	0.403	0.289	0.787	0.9	0.613	0.483
